Measurements from patent US20150141437A1, “AMIDOPHENOXYPROPANOLAMINES” (MEDIZINISCHE UNIVERSITÄT WIEN, priority 2012, published 2015).
pIC50: −log10 of the molar value.

How the values were obtained:
Assay type in all cases: cell-based
[1] = test system: P. falciparum 3D7 (CQ-sensitive); assay: HRP2-based ELISA growth inhibition, 3D7 strain; conditions: Plasmodium falciparum, unmarked values: HRP II ELISA, 72 h
Text: (§1) Highly sensitive HRP2-based ELISA and [^3H]-hypoxanthine incorporation assay were used as markers for inhibition of parasite growth as previously described (12, 14). A solvent control and a chloroquine (CQ) control were included in the HRP2-based ELISA. CQ, lumefantrine and artesunate were included as controls in the [^3H]-hypoxanthine assay series.
(§2) The assay protocol of the HRP2-based ELISA is described in more detail in the following paragraphs.
(§3) The P. falciparum clones were maintained in continuous culture as described previously (10). Briefly, 3D7 (CQ-sensitive), NF54, and K1 (CQ-resistant) P. falciparum clones were obtained from MR4/American Type Culture Collection, Manassas, Va., USA under the accession numbers MR4-102 (3D7), MRA-1000 (NF54), and MR4-159 (K1). P. falciparum cultures were maintained in 25 cm^2 flasks. Parasites were cultured in RPMI 1640 (Sigma Aldrich, Austria) medium containing 10% human serum at a hematocrit of 5% (blood group 0 negative) at 37° C. under an atmosphere of 5% CO2, 5% O2 and 90% N2. The medium was changed every 24 to 48 hours. The culture was diluted and fresh erythrocytes were added whenever the parasite density reached >1%.
(§4) Stock solutions of compounds of formula I were prepared in DMSO (10 mg/mL). Stock concentrations of chloroquine and lumefantrine always remained 1 mg/mL and were prepared in 70% ethanol. Coating of culture plates with compounds of formula I and controls: 96 wells culture plates were coated as described previously (11). Working standards were prepared by diluting the stock solutions in RPMI1640 to obtain the desired final concentrations. Serial three-fold dilutions (seven concentrations and one drug-free control well) of the drugs (25 μL/well) were dispensed in duplicate into standard 96-well micro culture plates. Chloroquine was included as a reference drug in all experiments.
(§5) After reaching a parasitemia of 5% or higher, 5 mL of cell medium mixture were centrifuged at 700 g for 5 minutes at room temperature (RT). Packed red cells were resuspended in 3 mL of 5% D-sorbitol (Sigma Aldrich, Austria) in water at RT and immediately centrifuged again at 700 g for 5 minutes at RT followed by three washes with 3 mL of RPMI1640 medium. […].
(§6) Samples were diluted with RPMI1640 medium containing 0.5% Albumax II (GIBCO, Invitrogen, Vienna, Austria) by adding uninfected red blood cells to 1.5% hematocrit and 0.05% parasitemia. 150 μL of this cell medium mixture was then added to each well of 96-well plates precoated with test compounds and incubated at 37° C. for 72 hours in a gas mixture containing 5% CO2, 5% O2, and 90% N2. After 72 hours the plates were frozen at −20° C. until the histidine rich protein II assay (23).
(§7) A highly sensitive HRPII ELISA was used based on two commercially available monoclonal antibodies (Immunology Consultants Laboratory, Inc., Newberg, Oreg.) directed against P. falciparum-specific HRPII: MPFM-55A, an immunoglobulin M antibody served as the primary capture antibody and HRP-conjugated MPFG-55P (Immunology Consultants Laboratory, Inc., Newberg, Oreg.) as secondary antibody. The ELISA was employed to assess growth inhibition as a measure of drug susceptibility as previously described. Optical density was measured at 450 nm using a standard ELISA plate reader (12-13).
(§8) Hyperbolic concentration response curves were fitted to the data points by nonlinear least squares using the solver add-in of the Excel software.
(§9) Indicated in TABLE 2 are the IC50 [μM] values for growth inhibition of the 3D7 (NF54) and K1 strains of P. falciparum for the compounds of formula I indicated with their formula numbers in TABLE 2. Unmarked IC50 values for K1 and 3D7 strains of P. falciparum have been determined by HRP II enzyme linked immunosorbent assay (ELISA) as described above. […]

[2] = test system: P. falciparum K1 (CQ-resistant); assay: HRP2-based ELISA growth inhibition, K1 strain; conditions: Plasmodium falciparum, unmarked values: HRP II ELISA, 72 h
Text: as §1, §2, §3, §4, §5, §6, §7, §8, §9

[3] = test system: P. falciparum K1 (CQ-resistant); assay: [3H]-hypoxanthine incorporation assay, K1 strain; conditions: Plasmodium falciparum, values marked with asterisk: [3H]-hypoxanthine assay, read-out: IC50 growth inhibition K1 (*)
[4] = test system: P. falciparum NF54 (CQ sensitive); assay: [3H]-hypoxanthine incorporation assay, NF54 strain; conditions: Plasmodium falciparum, values marked with asterisk: [3H]-hypoxanthine assay, read-out: IC50 growth inhibition NF54*

| pIC50 [1] | pIC50 [2] | pIC50 [3] | pIC50 [4] | SMILES |
| --- | --- | --- | --- | --- |
| 6.88 | 7.27 | – | – | CN(CC(O)COc1ccccc1C(=O)NCc1ccc(C(F)(F)F)cc1)C1C2CC3CC(C2)CC1C3 (stereo not shown) [Compound I-16, 2-[3-(Adamantan-2-yl-methyl-amino)-2-hydroxy-propoxy]-N-(4-trifluoromethyl-benzyl)-benzamide] |
| 6.82 | 7.40 | – | – | CCCCCN(CC(O)COc1ccccc1C(=O)NCc1ccccc1)C1C2CC3CC(C2)CC1C3 (stereo not shown) [Compound I-19, 2-[3-(Adamantan-2-yl-pentyl-amino)-2-hydroxy-propoxy]-N-benzyl-benzamide] |
| 5.80 | 6.46 | – | – | CCCN(CC(O)COc1ccccc1C(=O)NCc1ccccc1OC)C1C2CC3CC(C2)CC1C3 (stereo not shown) [Compound I-18, 2-[3-(Adamantan-2-yl-propyl-amino)-2-hydroxy-propoxy]-N-(2-methoxy-benzyl)-benzamide] |
| 5.38 | 6.21 | – | – | COc1ccccc1CN(CC(O)COc1ccccc1C(=O)NCc1ccccc1)C1C2CC3CC(C2)CC1C3 (stereo not shown) [Compound I-21, 2-{3-[Adamantan-2-yl-(2-methoxy-benzyl)-amino]-2-hydroxy-propoxy}-N-benzyl-benzamide] |
| 7.15 | 7.92 | – | – | Cc1ccc(NC(=O)c2ccccc2OCC(O)CNC(C)C23CC4CC(CC(C4)C2)C3)cc1 (stereo not shown) [Compound I-41, 2-[3-(1-Adamantan-1-yl-ethylamino)-2-hydroxy-propoxy]-N-p-tolyl-benzamide] |
| 6.70 | 7.00 | – | – | COc1ccccc1CNC(=O)c1ccccc1OCC(O)CNC1C2CC3CC(C2)CC1C3 (stereo not shown) [Compound I-7, 2-[3-(Adamantan-2-ylamino)-2-hydroxy-propoxy]-N-(2-methoxy-benzyl)-benzamide] |
| 6.92 | 7.54 | – | – | O=C(NCc1ccccc1)c1ccccc1OCC(O)CNC1C2CC3CC(C2)CC1C3 (stereo not shown) [Compound I-6, 2-[3-(Adamantan-2-ylamino)-2-hydroxy-propoxy]-N-benzyl-benzamide] |
| 6.56 | 7.07 | – | – | CCCNCC(O)COc1ccccc1C(=O)Nc1ccc(C)cc1 (stereo not shown) [Compound I-54, 2-(2-Hydroxy-3-propylamino-propoxy)-N-p-tolyl-benzamide] |
| 6.15 | 7.52 | – | – | O=C(NCc1ccccc1)c1ccccc1OCC(O)CNCCC12CC3CC(CC(C3)C1)C2 (stereo not shown) [Compound I-62, 2-[3-(2-Adamantan-1-yl-ethylamino)-2-hydroxy-propoxy]-N-benzyl-benzamide] |
| 5.02 | 6.01 | – | – | C#CCOc1cc(CN(CCC)CC(O)COc2ccccc2C(=O)NCc2ccccc2)ccc1OC (stereo not shown) [Compound I-63, N-Benzyl-2-{2-hydroxy-3-[(4-methoxy-3-prop-2-ynyloxy-benzyl)-propyl-amino]-propoxy}-benzamide] |
| 6.73 | 7.35 | – | – | O=C(NCCCc1ccccc1)c1ccccc1OCC(O)CNC1C2CC3CC(C2)CC1C3 (stereo not shown) [Compound I-11, 2-[3-(Adamantan-2-ylamino)-2-hydroxy-propoxy]-N-(3-phenyl-propyl)-benzamide] |
| 6.51 | 7.05 | – | – | CC(NCC(O)COc1ccccc1C(=O)NCc1ccccc1)C12CC3CC(CC(C3)C1)C2 (stereo not shown) [Compound I-28, 2-[3-(1-Adamantan-1-yl-ethylamino)-2-hydroxy-propoxy]-N-benzyl-benzamide] |
| 6.21 | 7.04 | – | – | CCCNC(=O)c1ccccc1OCC(O)CNC1C2CC3CC(C2)CC1C3 (stereo not shown) [Compound I-12, 2-[3-(Adamantan-2-ylamino)-2-hydroxy-propoxy]-N-propyl-benzamide] |
| 6.65 | 7.47 | – | – | O=C(NCc1ccccc1)c1ccccc1OCC(O)CN(CCCc1ccccc1)C1C2CC3CC(C2)CC1C3 (stereo not shown) [Compound I-23, 2-{3-[Adamantan-2-yl-(3-phenyl-propyl)-amino]-2-hydroxy-propoxy}-N-benzyl-benzamide] |
| 6.58 | 7.54 | – | – | O=C(NCCc1ccccc1)c1ccccc1OCC(O)CNC1C2CC3CC(C2)CC1C3 (stereo not shown) [Compound I-9, 2-[3-(Adamantan-2-ylamino)-2-hydroxy-propoxy]-N-phenethyl-benzamide] |
| 6.71 | 7.54 | – | – | O=C(NCc1ccccc1)c1ccccc1OCC(O)CNC1CCCCCCC1 (stereo not shown) [Compound I-53, N-Benzyl-2-(3-cyclooctylamino-2-hydroxy-propoxy)-benzamide] |
| – | – | 8.64 | 8.07 | O=C(Nc1cccc(C(F)(F)F)c1)c1ccccc1OCC(O)CN1CCC(Cc2ccccc2)CC1 (stereo not shown) [Compound I-68, 2-[3-(4-Benzyl-piperidin-1-yl)-2-hydroxy-propoxy]-N-(3-trifluoromethyl-phenyl)-benzamide] |
| – | – | 7.74 | 7.13 | CC(C)CCNC(=O)c1ccccc1OCC(O)CNC(C)C12CC3CC(CC(C3)C1)C2 (stereo not shown) [Compound I-25, 2-[3-(1-Adamantan-1-yl-ethylamino)-2-hydroxy-propoxy]-N-(3-methyl-butyl)-benzamide] |
| – | – | 8.30 | 7.70 | O=C(NCc1cccc2ccccc12)c1cc(Cl)ccc1OCC(O)CNCC12CC3CC(CC(C3)C1)C2 (stereo not shown) [Compound I-34, 2-{3-[(Adamantan-1-ylmethyl)-amino]-2-hydroxy-propoxy}-5-chloro-N-naphthalen-1-ylmethyl-benzamide] |
| – | – | 8.40 | 7.85 | CC(NCC(O)COc1ccc(Cl)cc1C(=O)NCc1cccc2ccccc12)C12CC3CC(CC(C3)C1)C2 (stereo not shown) [Compound I-35, 2-[3-(1-Adamantan-1-yl-ethylamino)-2-hydroxy-propoxy]-5-chloro-N-naphthalen-1-ylmethyl-benzamide] |
| – | – | 7.92 | 7.23 | O=C(Nc1ccc(F)cc1)c1ccccc1OCC(O)CN1CCN(C23CC4CC(CC(C4)C2)C3)CC1 (stereo not shown) [Compound I-5, 2-[3-(4-Adamantan-1-yl-piperazin-1-yl)-2-hydroxy-propoxy]-N-(4-fluoro-phenyl)-benzamide] |
| – | – | 7.96 | 7.29 | O=C(Nc1ccc(F)cc1)c1ccccc1OCC(O)CNC12CC3CC(CC(C3)C1)C2 (stereo not shown) [Compound I-3, 2-[3-(Adamantan-1-ylamino)-2-hydroxy-propoxy]-N-(4-fluoro-phenyl)-benzamide] |
| – | – | 8.66 | 8.06 | O=C(Nc1cccc(C(F)(F)F)c1)c1ccccc1OCC(O)CN1CCC(c2ccccc2)CC1 (stereo not shown) [Compound I-67, 2-[2-Hydroxy-3-(4-phenyl-piperidin-1-yl)-propoxy]-N-(3-trifluoromethyl-phenyl)-benzamide] |
| – | – | 8.15 | 7.80 | O=C(Nc1ccc(F)cc1)c1ccccc1OCC(O)CN1CCC(Cc2ccccc2)CC1 (stereo not shown) [Compound I-47, 2-[3-(4-Benzyl-piperidin-1-yl)-2-hydroxy-propoxy]-N-(4-fluoro-phenyl)-benzamide] |
| – | – | 8.23 | 7.62 | Cc1ccc(NC(=O)c2ccccc2OCC(O)CN2CCN(C(c3ccccc3)c3ccccc3)CC2)cc1 (stereo not shown) [Compound I-82, 2-[3-(4-Benzhydryl-piperazin-1-yl)-2-hydroxy-propoxy]-N-p-tolyl-benzamide] |
| – | – | 8.10 | 7.42 | CC12CC3CC(C)(C1)CC(NCC(O)COc1ccccc1C(=O)Nc1ccc(F)cc1)(C3)C2 (stereo not shown) [Compound I-4, 2-[3-(3,5-Dimethyl-adamantan-1-ylamino)-2-hydroxy-propoxy]-N-(4-fluoro-phenyl)-benzamide] |
